The results in this text go back to PubChem BioAssay (NCI).

Test systems include CAKI-1 renal; CCRF-CEM leukemia; COLO 205 colon; DMS 273 small cell lung; EKVX NSCLC; HL-60(TB) leukemia; HT29 colon; KM12 colon; LOX IMVI melanoma; MCF7 breast; MOLT-4 leukemia; NCI-H226 lung; OVCAR-5 ovarian; SF-268 CNS; U251 CNS; UACC-257 melanoma; ACHN renal.
What all share (assay): NCI anticancer screen, dose series, 48 h

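Method: 48-hour compound exposure of cells in 96-well plates, five concentrations, linear interpolation of endpoints. At the TGI there is no net growth.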

Turning to `CC(C)(C)c1ccc2c(c1)OP1(Oc3c(Cl)cc(Cl)c4cccnc34)(O2)Oc2ccc(C(C)(C)C)cc2O1`, the TGI is 9.58 µM in the assay with CAKI-1 renal; greater than 100 µM in the assay with CCRF-CEM leukemia; 31.3 µM in the assay on COLO 205 colon; 18.3 µM with DMS 273 small cell lung; greater than 35.7 µM in the assay with EKVX NSCLC; 10.1 µM in the assay with HL-60(TB) leukemia. Further, the TGI with HT29 colon is 19.5 µM; in the assay on KM12 colon it was 20.4 µM; in the assay with LOX IMVI melanoma, 19.2 µM; in the assay with MCF7 breast, 17.3 µM; with MOLT-4 leukemia, 18.7 µM; in the assay on NCI-H226 lung it was 29.1 µM. Also, the TGI with OVCAR-5 ovarian turned out to be 27.5 µM; in the assay with SF-268 CNS, 24.7 µM; in the assay with U251 CNS, 15.9 µM; in the assay on UACC-257 melanoma it was 14.2 µM.

Consider `C=C(/C=C/C=C(\C)CCC=C(C)C)[C@@H]1CC[C@]2([C@H](CCCO)/C(=C(/C)C=O)CC[C@]2(C)O)[C@@H]1O`, for which the TGI in the assay on ACHN renal was greater than 100 µM; in the assay with CAKI-1 renal it was 60.9 µM; with CCRF-CEM leukemia it was 48.8 µM; with COLO 205 colon, 26 µM; in the assay on DMS 273 small cell lung it was 27.9 µM; with EKVX NSCLC, 44.1 µM. In addition, the TGI stood at 35.4 µM in the assay on HL-60(TB) leukemia; 30.9 µM in the assay with HT29 colon; 15.4 µM in the assay on KM12 colon; 31.9 µM in the assay with LOX IMVI melanoma; 29.3 µM in the assay on MOLT-4 leukemia; 56.2 µM in the assay with NCI-H226 lung. Further, the TGI in the assay with OVCAR-5 ovarian was greater than 100 µM; in the assay on SF-268 CNS it was 41.8 µM; in the assay with U251 CNS it was 28.5 µM; in the assay on UACC-257 melanoma, 59.5 µM.

As to `S=P1(Sc2ccccc2)Oc2ccc3ccccc3c2-c2c(ccc3ccccc23)O1`, the TGI with CAKI-1 renal, with CCRF-CEM leukemia, with COLO 205 colon, in the assay with DMS 273 small cell lung, in the assay with EKVX NSCLC and in the assay with HL-60(TB) leukemia was greater than 100 µM in each case. Also, the TGI in the assay on HT29 colon, with KM12 colon, in the assay with LOX IMVI melanoma, in the assay with MCF7 breast, in the assay on MOLT-4 leukemia and with NCI-H226 lung was greater than 100 µM each time. Besides, the TGI in the assay on OVCAR-5 ovarian, in the assay with SF-268 CNS, with U251 CNS and with UACC-257 melanoma was greater than 100 µM each time.

`c1ccc2c3c(ccc2c1)-c1[nH]ncc1CCO3`: the TGI in the assay with CAKI-1 renal is greater than 64 µM; in the assay with CCRF-CEM leukemia, greater than 100 µM; in the assay on COLO 205 colon, 99.7 µM; in the assay on DMS 273 small cell lung, greater than 100 µM; in the assay on EKVX NSCLC it was 45 µM; in the assay on HL-60(TB) leukemia it was 41.2 µM. The TGI is greater than 100 µM in the assay with HT29 colon; greater than 100 µM with KM12 colon; greater than 93.6 µM in the assay with LOX IMVI melanoma; greater than 100 µM in the assay with MCF7 breast; 77.5 µM in the assay on MOLT-4 leukemia; greater than 86.2 µM with OVCAR-5 ovarian. The results for the TGI in the assay on SF-268 CNS, in the assay on U251 CNS and in the assay with UACC-257 melanoma were 98.8 µM, 51.8 µM and 83.6 µM, respectively.

With `CC(C)(C)C1=CC(=N/N=c2\scc(-c3ccccc3)n2-c2ccccc2)C=C(C(C)(C)C)C1=O`, the TGI with ACHN renal, in the assay on CAKI-1 renal, in the assay with CCRF-CEM leukemia, in the assay with COLO 205 colon, in the assay with DMS 273 small cell lung and in the assay on EKVX NSCLC was greater than 100 µM in each case. Moreover, the TGI in the assay with HL-60(TB) leukemia, in the assay on HT29 colon, in the assay with KM12 colon, in the assay with LOX IMVI melanoma, with MOLT-4 leukemia and in the assay on NCI-H226 lung was greater than 100 µM each time. The TGI in the assay on OVCAR-5 ovarian, in the assay on SF-268 CNS, in the assay on U251 CNS and with UACC-257 melanoma was greater than 100 µM in each case.

On to `CCCCN(CC)C(=O)C(=O)Cc1nc2ccc(C(=O)c3ccccc3)cc2[nH]c1=O`, for which the TGI with ACHN renal was greater than 100 µM; in the assay on CAKI-1 renal, greater than 100 µM; with CCRF-CEM leukemia it was greater than 31.6 µM; with COLO 205 colon, greater than 100 µM; with DMS 273 small cell lung, greater than 100 µM; in the assay with EKVX NSCLC, greater than 100 µM. Moreover, the TGI was greater than 31.6 µM with HL-60(TB) leukemia; greater than 100 µM in the assay with HT29 colon; greater than 100 µM with KM12 colon; greater than 100 µM in the assay with LOX IMVI melanoma; greater than 31.6 µM with MOLT-4 leukemia; greater than 100 µM in the assay with NCI-H226 lung. The TGI in the assay on OVCAR-5 ovarian, with SF-268 CNS, with U251 CNS and with UACC-257 melanoma was greater than 100 µM each time.

Regarding `CCCn1cc2c(=O)[nH]c(SC)nc2n1`, the TGI with ACHN renal, in the assay on CAKI-1 renal, with CCRF-CEM leukemia, in the assay with COLO 205 colon, in the assay on DMS 273 small cell lung and in the assay with EKVX NSCLC was greater than 100 µM each time. Further, the TGI in the assay on HL-60(TB) leukemia was greater than 100 µM; in the assay with HT29 colon it was greater than 100 µM; with KM12 colon, greater than 100 µM; with LOX IMVI melanoma, greater than 100 µM; with MOLT-4 leukemia, greater than 100 µM; in the assay on NCI-H226 lung it was 89.1 µM. The TGI in the assay with OVCAR-5 ovarian, with SF-268 CNS, in the assay on U251 CNS and in the assay with UACC-257 melanoma was greater than 100 µM throughout.
